Source: US9884065B2, “Inhibiting activity of senescent cells using a glucocorticoid” (Buck Institute for Research on Aging, priority 2011, dated 2018)

Key:
HCA2 human fibroblasts = details: 2.5 μM, 48 hours
Description: The initial drug screen was performed in a 96-well format using automated liquid handling with a Biomek FX (Beckman Coulter, CA). Senescent cells were plated 24 hours after X-irradiation at 7,500 cells per well in 96-well plates. Six days after plating the senescent cells, the pre-senescent cells were plated at 7,500 cells per well in 96-well plates. Twenty-four hours after pre-senescent plating, both pre-senescent and senescent cells were washed and incubated in low (0.2%) serum for 48 hours to arrest cell proliferation of the pre-senescent cells. Drugs from the Prestwick Chemical Library, which contains 1120 bio-available compounds in DMSO, were given to the cells at 2.5 μM in media containing 0.2% serum. Forty-eight hours after compound addition, the medium in each well was removed and frozen for assay by ELISA to quantitate the levels of IL-6. The cells, which remained in the wells after the medium was removed, were lysed and ATP levels were measured (ATPlite 1-step assay, Perkin Elmer, MA) to exclude compounds that lowered IL-6 through toxicity (cell death). Experimental wells in each plate were normalized to plate mean or same-plate DMSO controls for the ELISA and ATP assays, respectively.
To identify small molecules that may be potential SASP modulators, a screening strategy that entailed administering compounds to parallel 96-well plates containing human fibroblasts (strain HCA2) that were either quiescent or senescent was developed. The compounds tested comprised the Prestwick Chemical Library, a collection of approximately 1,120 Federal Drug Administration-approved drugs. The compounds were added to duplicate wells at a single concentration (2.5 μM). After 48 hours, the medium from each well was removed, and the cells were lysed. […] Cell lysates were assayed for ATP as a surrogate for cell number.

SASP = assay: Antibody arrays of conditioned media (120 cytokines and growth factors, SASP); assay type: cell-based, human; details: 500 nM corticosterone or 100 nM cortisol
Description: Cultures were washed and incubated in serum-free DMEM for 24 hours and the conditioned media were diluted to equivalent cell numbers using DMEM. Antibody arrays from Raybiotech (AAH-CYT-G1000-8) were used according to the manufacturer's instructions. Arrays were scanned using a GenePix 4200A Professional microarray scanner. Signal intensities were quantitated using LI-COR Odyssey software and normalized to positive controls for each sample, which were then normalized across all samples, as previously described (Freund et al., 2011, EMBO J. 30:1536-1548).
To determine whether or not, or to what extent corticosterone or cortisol suppressed the entire SASP, antibody arrays were used to interrogate the relative secretion of 120 cytokines and growth factors. Presenescent and senescent cells were incubated with 500 nM corticosterone or 100 nM cortisol (FIG. 12C).

IL-6 = IL-6 ELISA, HCA2 cells induced to senesce by oncogenic RAS or MKK6 overexpression; assay type: cell-based, human; details: 500 nM corticosterone, 100 nM cortisol, 6 days
Description: (FIG. 12A) Senescent X-irradiated with 10 Gy (Sen (XRA)) HCA2 fibroblasts were incubated in medium plus 10% serum containing the indicated concentrations of corticosterone or the highest concentration of DMSO (vehicle control). The cells were given corticosterone or DMSO immediately after irradiation and analyzed 6 days later. The cells were washed and incubated in serum-free medium without corticosterone to generate conditioned media. Conditioned media from pre-senescent (Pre) and control or corticosterone-treated Sen (XRA) cells were analyzed by ELISA for IL-6. (FIG. 12B) Cells were treated, and conditioned media were generated and analyzed as described in (FIG. 12A) except cortisol was used at the indicated concentrations. (FIG. 12C) Conditioned media were collected from presenescent (PRE) or senescent (XRA) cells that were treated with DMSO, corticosterone ([…]), or cortisol (100 nM) as described in (FIG. 12A). The conditioned media were analyzed by antibody arrays. Average signal from PRE and XRA DMSO cells was used as the baseline. Signals higher than baseline are light gray (see +1 on scale to right); signals lower than baseline are dark gray as illustrated by PRE DMSO (see −1 on scale at right). […]
Conditioned media were filtered and stored at −80° C. Cell numbers were determined in every experiment. […] Data were normalized and expressed as pg/ml/cell/24 h.

[1] = target: T1, glucocorticoid receptor (GR) (Homo sapiens, UniProt P04150); assay: Immunostaining for GR localization in HCA2 cells; assay type: cell-based; details: senescent HCA2 cells; 500 nM corticosterone or 100 nM cortisol
T1 construct: endogenous in cells; host or cells: HCA2 human fibroblasts
T1 sequence (P04150 1-777): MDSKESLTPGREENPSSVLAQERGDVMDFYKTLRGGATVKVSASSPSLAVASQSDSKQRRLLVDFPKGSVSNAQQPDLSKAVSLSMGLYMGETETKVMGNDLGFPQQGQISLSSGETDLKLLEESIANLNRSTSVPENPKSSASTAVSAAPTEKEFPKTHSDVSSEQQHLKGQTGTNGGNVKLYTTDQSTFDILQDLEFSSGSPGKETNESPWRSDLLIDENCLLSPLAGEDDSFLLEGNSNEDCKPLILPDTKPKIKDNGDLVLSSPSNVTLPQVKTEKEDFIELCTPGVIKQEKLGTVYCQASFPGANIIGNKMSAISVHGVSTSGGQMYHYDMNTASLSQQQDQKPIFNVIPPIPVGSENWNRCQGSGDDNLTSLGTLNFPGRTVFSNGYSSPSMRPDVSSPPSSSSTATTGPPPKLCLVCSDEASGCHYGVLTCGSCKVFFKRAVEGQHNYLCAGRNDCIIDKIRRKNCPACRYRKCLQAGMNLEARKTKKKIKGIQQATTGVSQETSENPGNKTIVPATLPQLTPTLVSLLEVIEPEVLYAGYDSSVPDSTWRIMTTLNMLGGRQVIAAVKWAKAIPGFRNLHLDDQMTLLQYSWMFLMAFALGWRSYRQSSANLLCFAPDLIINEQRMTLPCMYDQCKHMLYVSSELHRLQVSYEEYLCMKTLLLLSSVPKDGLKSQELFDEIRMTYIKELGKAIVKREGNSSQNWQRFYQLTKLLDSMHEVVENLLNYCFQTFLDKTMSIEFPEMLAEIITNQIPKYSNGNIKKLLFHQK
Description: Cells were cultured in 8-well chamber slides, fixed in 4% formaldehyde (Sigma) for 10 min at 4° C. and permeabilized in PBS-0.5% Triton for 10 min in 4° C.

Row | SMILES | ATP levels (HCA2 human fibroblasts) | secretion of growth and angiogenic factors (SASP) | secretion of pro-inflammatory cytokines and chemokines (SASP) | suppression of all components of the SASP (SASP) | suppression of senescence-associated IL-6 secretion (IL-6) | GR localization [1]
1 | C[C@]12C[C@H](O)[C@H]3[C@@H](CCC4=CC(=O)CC[C@@]43C)[C@@H]1CC[C@@H]2C(=O)CO [corticosterone] | without altering ATP levels | suppressed the secretion of several growth and angiogenic factors such as VEGF | strongly suppressed the secretion of several pro-inflammatory cytokines and chemokines, including IL-6, IL-8, GM-CSF and MCP-2 | Neither glucocorticoid suppressed all components of the SASP | effective | translocated into the nucleus
2 | C[C@]12CCC(=O)C=C1CC[C@@H]1[C@@H]2[C@@H](O)C[C@@]2(C)[C@H]1CC[C@]2(O)C(=O)CO [cortisol] | without altering ATP levels | suppressed the secretion of several growth and angiogenic factors such as VEGF | strongly suppressed the secretion of several pro-inflammatory cytokines and chemokines, including IL-6, IL-8, GM-CSF and MCP-2 | Neither glucocorticoid suppressed all components of the SASP | effective | translocated into the nucleus
